Some test systems named below: A498; ACHN; COLO 205; IGROV-1; LOX IMVI; M14; MDA-MB-231; MOLT-4; Malme-3M; NCI-H522; OVCAR-3; OVCAR-4; RXF 393; SF-268; SK-MEL-5; SN12C; SR; UACC-257; UO-31.
What all share (experiment): DTP human tumour cell line panel, 48 h

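Test compounds were applied to cells in 96-well plates for 48 hours at 5 doses. At the GI50, growth is halved.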 Activity calls are given as the source filed them. Cut-off read from the data, not from the text of the source: active = GI50 up to about 1.1 µM and inactive = higher.

Broadly, the GI50 is the concentration at which growth is held to half of that of the control. For the molecule `C=C(C(=O)O)[C@@H]1C[C@@H](OC(C)=O)[C@]2(C)CC/C=C(\C)CCC[C@H](C)[C@H](O)[C@@H]1O2`, the GI50 was > 100 µM (inactive) with A498; 55.7 µM (inactive) in the assay with ACHN; 33.1 µM (inactive) with COLO 205; 36.8 µM (inactive) with IGROV-1; 30.3 µM (inactive) with LOX IMVI; 28.2 µM (inactive) in the assay on M14. For the same molecule, the GI50 with MDA-MB-231 is > 100 µM (inactive); in the assay on MOLT-4, 24.7 µM (inactive); in the assay on Malme-3M, 61.7 µM (inactive); in the assay on NCI-H522, 18 µM (inactive); in the assay on OVCAR-3, 37.4 µM (inactive); with OVCAR-4, > 100 µM (inactive). Further, the GI50 in the assay on RXF 393 is 18.5 µM (inactive); with SF-268 it was > 100 µM (inactive); in the assay on SK-MEL-5 it was 30.2 µM (inactive); with SN12C it was 60.4 µM (inactive); in the assay on SR, 24.3 µM (inactive); with UACC-257, 47 µM (inactive).

On to `OC1NC2Nc3ccccc3NC2NC1O` (stereo unspecified), for which the GI50 in the assay on A498, in the assay with ACHN, in the assay on COLO 205, with IGROV-1, with LOX IMVI and in the assay with M14 was > 100 µM (inactive) in each case. Further, the GI50 in the assay with MDA-MB-231, in the assay with MOLT-4, in the assay on Malme-3M, in the assay on NCI-H522, in the assay on OVCAR-3 and in the assay with OVCAR-4 was > 100 µM (inactive) in each case. Further, the GI50 in the assay on RXF 393, in the assay with SF-268, with SK-MEL-5, with SN12C, in the assay on SR and in the assay on UACC-257 was > 100 µM (inactive) each time.

As to `COc1ccc(-n2nnc3c(C#N)c(-c4ccccc4)c(C)n3c2=O)cc1`, the GI50 in the assay with A498 was 38.1 µM (inactive); in the assay with ACHN, 30.1 µM (inactive); in the assay with COLO 205, 33.7 µM (inactive); in the assay with IGROV-1, 24 µM (inactive); with LOX IMVI, 33.8 µM (inactive); in the assay on M14, 81.8 µM (inactive). The GI50 in the assay with MDA-MB-231 is 25.2 µM (inactive); in the assay on Malme-3M it was > 100 µM (inactive); in the assay on NCI-H522 it was 22.6 µM (inactive); in the assay on OVCAR-3, 28.2 µM (inactive); in the assay on OVCAR-4, 28.8 µM (inactive); in the assay on RXF 393, 28.4 µM (inactive). Further, the GI50 with SF-268 is 83.4 µM (inactive); in the assay on SK-MEL-5, 14.8 µM (inactive); in the assay on SN12C, 62.5 µM (inactive); in the assay with SR it was 7.45 µM (inactive); in the assay on UACC-257 it was 85.5 µM (inactive); with UO-31, 71.3 µM (inactive).

As for `C/C(=N\Nc1nc2ccccc2n1C)c1ccncn1`, the GI50 in the assay with A498 was 0.14 µM (active); in the assay on ACHN, 0.0266 µM (active); with COLO 205, < 0.01 µM (active); in the assay with IGROV-1, 0.0233 µM (active); in the assay on LOX IMVI it was 0.0845 µM (active); in the assay on M14, 0.0408 µM (active). Further, the concentration for 50% growth inhibition (GI50) was 0.0389 µM (active) in the assay on MDA-MB-231; < 0.01 µM (active) in the assay on MOLT-4; < 0.0385 µM (active) with Malme-3M; 0.0393 µM (active) in the assay on NCI-H522; 0.17 µM (active) in the assay with OVCAR-4; 1.55 µM (inactive) with RXF 393. Moreover, the GI50 in the assay with SF-268 is 0.0762 µM (active); in the assay on SK-MEL-5, 0.102 µM (active); in the assay with SN12C, 0.0243 µM (active); with SR, 0.082 µM (active); in the assay with UACC-257, 0.0382 µM (active); with UO-31 it was 0.0391 µM (active).

With `CN(C)c1ccc(C2ON=C(c3ccccc3)N2C23CC4CC(CC(C4)C2)C3)cc1` (stereo unspecified), the GI50 in the assay with A498, in the assay on ACHN, with COLO 205, with IGROV-1, in the assay with LOX IMVI and in the assay on M14 was > 10 µM (inactive) each time. Besides, the GI50 in the assay with MDA-MB-231 was > 10 µM (inactive); in the assay on MOLT-4, 5.87 µM (inactive); with Malme-3M, > 10 µM (inactive); in the assay with NCI-H522 it was > 10 µM (inactive); in the assay on OVCAR-3 it was > 10 µM (inactive); in the assay with OVCAR-4, > 10 µM (inactive). Besides, the GI50 in the assay with RXF 393 was > 10 µM (inactive); in the assay on SF-268, > 10 µM (inactive); in the assay on SK-MEL-5, > 10 µM (inactive); with SN12C, > 10 µM (inactive); in the assay with SR, 8.02 µM (inactive); with UACC-257 it was > 10 µM (inactive).

As for `O=C1O/C(=C\c2ccccc2)N(c2ccccc2)C1=O`, the GI50 with A498, in the assay with ACHN, in the assay on COLO 205, in the assay on IGROV-1, with LOX IMVI and in the assay with M14 was > 100 µM (inactive) throughout. Further, the GI50 in the assay on MDA-MB-231, in the assay with MOLT-4, in the assay on NCI-H522, in the assay on OVCAR-3, with OVCAR-4 and in the assay on RXF 393 was > 100 µM (inactive) in each case. Also, the GI50 in the assay with SF-268, with SK-MEL-5, in the assay with SN12C, with SR, with UACC-257 and in the assay with UO-31 was > 100 µM (inactive) throughout.

Consider `O=C1c2ccccc2CCC1C(O)(C(F)(F)F)C(F)(F)F` (stereo unspecified), for which the GI50 with A498, in the assay on ACHN, with COLO 205, with IGROV-1, in the assay with LOX IMVI and in the assay with M14 was > 100 µM (inactive) each time. Moreover, the GI50 with MDA-MB-231 was > 100 µM (inactive); with MOLT-4, 44.6 µM (inactive); in the assay on Malme-3M, > 100 µM (inactive); with NCI-H522 it was > 100 µM (inactive); in the assay on OVCAR-3, > 100 µM (inactive); in the assay on OVCAR-4, > 100 µM (inactive). The GI50 with RXF 393 is 93.8 µM (inactive); with SK-MEL-5, 49.2 µM (inactive); in the assay on SR, > 100 µM (inactive); with UACC-257, > 100 µM (inactive); with UO-31 it was > 100 µM (inactive).

As for `COC(=O)C1[C@H](C(=O)OC)C1(Br)CBr` (stereo partly specified), the GI50 with A498, in the assay with ACHN, in the assay on COLO 205, in the assay on IGROV-1, in the assay on LOX IMVI and in the assay with M14 was > 100 µM (inactive) each time. The GI50 is > 100 µM (inactive) with MDA-MB-231; 40.1 µM (inactive) in the assay on MOLT-4; 8.95 µM (inactive) with NCI-H522; > 100 µM (inactive) in the assay on OVCAR-3; > 100 µM (inactive) in the assay on OVCAR-4; > 100 µM (inactive) with RXF 393. Further, the GI50 with SF-268, with SK-MEL-5, in the assay with SN12C, in the assay with SR, in the assay on UACC-257 and in the assay with UO-31 was > 100 µM (inactive) in each case.

Consider `CCCCCCc1ccc(C(=O)NO)cc1`, for which the GI50 in the assay on A498 was 29.2 µM (inactive); with ACHN, 22.9 µM (inactive); in the assay with COLO 205, 41.5 µM (inactive); in the assay on IGROV-1, 24.5 µM (inactive); in the assay with LOX IMVI, 17.2 µM (inactive); in the assay with M14 it was 35.1 µM (inactive). Besides, the GI50 was 95.7 µM (inactive) in the assay with MDA-MB-231; 11.7 µM (inactive) in the assay on MOLT-4; 11.3 µM (inactive) in the assay on NCI-H522; 30.3 µM (inactive) in the assay on OVCAR-3; 20.4 µM (inactive) in the assay on OVCAR-4; 41.2 µM (inactive) in the assay with RXF 393. Moreover, the GI50 with SF-268 was 25.3 µM (inactive); with SK-MEL-5 it was 47.1 µM (inactive); in the assay on SN12C, 21.9 µM (inactive); with SR, 9.98 µM (inactive); in the assay with UACC-257, 44.7 µM (inactive); in the assay on UO-31 it was 15.7 µM (inactive).

On to `C[C@]12C[C@H](O)[C@H]3[C@@H](CCC4=CC(=O)CC[C@@]43C)[C@@H]1CC[C@@H]2c1csc(-c2ccccc2)n1`, for which the GI50 in the assay with A498 was > 39 µM (inactive); in the assay with ACHN it was > 50.6 µM (inactive); in the assay on COLO 205, > 28 µM (inactive); with IGROV-1, > 68.5 µM (inactive); in the assay with LOX IMVI, > 58.3 µM (inactive); with M14, > 92.7 µM (inactive). Moreover, the GI50 is 20.1 µM (inactive) with MDA-MB-231; 0.625 µM (active) in the assay with MOLT-4; > 44.2 µM (inactive) with Malme-3M; 4.16 µM (inactive) in the assay on NCI-H522; > 22.4 µM (inactive) in the assay with OVCAR-3; 23.2 µM (inactive) in the assay on OVCAR-4. Besides, the GI50 with RXF 393 was 72.4 µM (inactive); with SF-268, > 53.8 µM (inactive); in the assay with SN12C, 59.7 µM (inactive); with SR, 3.21 µM (inactive); in the assay with UACC-257, 3.48 µM (inactive).

Consider `N/N=C1/C2CN3CCN(C2)CC1(c1ccc([N+](=O)[O-])cc1)C3`, for which the GI50 in the assay with A498, in the assay with ACHN, with COLO 205, with IGROV-1, with LOX IMVI and in the assay with MDA-MB-231 was > 100 µM (inactive) throughout. Further, the GI50 in the assay with MOLT-4, in the assay on Malme-3M, with NCI-H522, in the assay on OVCAR-3, in the assay on OVCAR-4 and in the assay with RXF 393 was > 100 µM (inactive) in each case. The GI50 in the assay on SF-268 is > 100 µM (inactive); in the assay with SK-MEL-5, > 100 µM (inactive); in the assay with SN12C, > 100 µM (inactive); in the assay with SR, 27.7 µM (inactive); in the assay with UACC-257, > 100 µM (inactive); in the assay on UO-31, > 100 µM (inactive).

For the origin of these results see ChEMBL document CHEMBL1201862, “PubChem BioAssay data set” (2004).
